Numbered stars: 1 amine (or outer) side, 2 acyl side, 3 side chain; on linkers, the order of the positions; unused ones are H or OH. Bridge positions count the residues as written; N and C are the ends. Square brackets hold non-standard residues; d marks the D form. Peptide text beside a SMILES is read from it. I, II: the chains in the order shown. Dmt = Cc1cc(O)cc(C)c1C[C@H](N)C(=O)O; Ethylenediamine = C(CN[*:2])N[*:1]; Tic = O=C(O)[C@@H]1Cc2ccccc2CN1
Legend:
δ-opioid receptor [1] = target: T1, δ-opioid receptor (Mus musculus, UniProt P32300); assay: Effect on deltorphin C stimulated GTPγS binding in NG108-15 cell membranes; assay type: biochemical; settings: for GTPγS (pA2)δ: antagonism of deltorphin C stimulated GTPγS binding, NG108-15 cell membranes, NA: not active (>20.000nM)
δ-opioid receptor (DOR) = δ-opioid receptor (DOR) (Rattus norvegicus, UniProt P33533); settings: cited from earlier work; for Ki: read-out: Receptor affinity Ki δ, rat brain membranes
μ-opioid receptor (MOR) = μ-opioid receptor (MOR) (Rattus norvegicus, UniProt P33535); settings: cited from earlier work; for Ki: read-out: Receptor affinity Ki μ, rat brain membranes; for Selectivity Kiδ/Kiμ: ratio of binding Ki values
μ-opioid receptors = μ-opioid receptors (Cavia porcellus, UniProt A0ACM8Q262); settings: read-out: GPI IC50; agonism, guinea pig ileum; cited from earlier work
δ-opioid receptor [2] = target: T1, δ-opioid receptor; settings: read-out: MVD IC50; agonism, mouse vas deferens; cited from earlier work
δ-opioid receptor [3] = target: T1, δ-opioid receptor; settings: δ-antagonism in vitro; cited from earlier work
μ-opioid receptor = settings: μ-antagonism in vitro; cited from earlier work

Chain of δ-opioid receptor (DOR) (P33533 whole entry): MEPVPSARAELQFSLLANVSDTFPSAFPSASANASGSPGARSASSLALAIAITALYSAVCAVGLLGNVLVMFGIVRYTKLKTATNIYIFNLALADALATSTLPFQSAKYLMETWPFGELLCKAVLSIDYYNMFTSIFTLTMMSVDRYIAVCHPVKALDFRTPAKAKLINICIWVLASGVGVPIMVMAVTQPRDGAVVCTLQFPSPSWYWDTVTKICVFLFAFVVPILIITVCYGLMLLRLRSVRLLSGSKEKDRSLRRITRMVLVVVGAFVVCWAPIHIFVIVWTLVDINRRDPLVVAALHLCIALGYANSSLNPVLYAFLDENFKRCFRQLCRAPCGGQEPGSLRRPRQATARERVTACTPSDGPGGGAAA
Chain of μ-opioid receptor (MOR) (P33535 whole entry): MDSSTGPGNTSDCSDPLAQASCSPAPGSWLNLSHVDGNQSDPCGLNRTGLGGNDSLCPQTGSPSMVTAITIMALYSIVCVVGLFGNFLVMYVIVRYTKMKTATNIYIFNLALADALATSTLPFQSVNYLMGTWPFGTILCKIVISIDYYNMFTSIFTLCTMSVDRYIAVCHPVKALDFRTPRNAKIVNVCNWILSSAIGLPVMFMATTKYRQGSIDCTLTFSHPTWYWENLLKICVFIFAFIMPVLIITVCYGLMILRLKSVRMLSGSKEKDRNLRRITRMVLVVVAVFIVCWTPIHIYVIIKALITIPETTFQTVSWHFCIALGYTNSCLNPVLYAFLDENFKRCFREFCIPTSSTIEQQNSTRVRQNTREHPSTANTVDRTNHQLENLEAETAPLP
T1 sequence (P32300 whole entry): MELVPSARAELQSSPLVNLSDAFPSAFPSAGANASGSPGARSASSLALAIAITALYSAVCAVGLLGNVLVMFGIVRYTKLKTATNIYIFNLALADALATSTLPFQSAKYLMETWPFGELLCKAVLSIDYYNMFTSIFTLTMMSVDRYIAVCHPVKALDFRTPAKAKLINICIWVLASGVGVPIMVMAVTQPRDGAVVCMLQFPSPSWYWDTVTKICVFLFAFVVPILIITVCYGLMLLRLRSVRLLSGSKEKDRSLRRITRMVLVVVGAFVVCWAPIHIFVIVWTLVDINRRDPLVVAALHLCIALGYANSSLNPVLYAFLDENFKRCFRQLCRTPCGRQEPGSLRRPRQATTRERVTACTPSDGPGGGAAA
Chain of μ-opioid receptors (A0ACM8Q262 1-400): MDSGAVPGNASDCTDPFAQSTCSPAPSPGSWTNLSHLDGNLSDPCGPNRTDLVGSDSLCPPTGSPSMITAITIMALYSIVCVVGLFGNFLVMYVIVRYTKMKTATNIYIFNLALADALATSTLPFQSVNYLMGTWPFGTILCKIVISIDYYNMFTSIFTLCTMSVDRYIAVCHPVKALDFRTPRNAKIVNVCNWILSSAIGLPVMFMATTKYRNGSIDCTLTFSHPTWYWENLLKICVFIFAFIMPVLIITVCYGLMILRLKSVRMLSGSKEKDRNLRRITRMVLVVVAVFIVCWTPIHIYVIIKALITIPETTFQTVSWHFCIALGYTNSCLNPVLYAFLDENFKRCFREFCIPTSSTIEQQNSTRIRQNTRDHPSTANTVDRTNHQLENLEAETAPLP

Cc1cc(O)cc(C)c1C[C@H](N)C(=O)N[C@H]1Cc2ccccc2CN(CC(=O)NCCN(CCNC(=O)CN2Cc3ccccc3C[C@H](NC(=O)[C@@H](N)Cc3c(C)cc(O)cc3C)C2=O)CCNC(=O)CN2Cc3ccccc3C[C@H](NC(=O)[C@@H](N)Cc3c(C)cc(O)cc3C)C2=O)C1=O [compound 16, tris-[H-Dmt-Aba-Gly-NH-ethylene]-N]
Kb (δ-opioid receptor [1]): 0.0229 µM

Cc1cc(O)cc(C)c1C[C@@H](C(=O)N[C@H]1Cc2c([nH]c3ccccc23)CN(CC(=O)O)C1=O)N(C)C [compound 8, Me2Dmt-Aia-Gly-OH]
Selectivity Kiμ/Kiδ (δ-opioid receptor (DOR); ratio of binding Ki values): 132
Ki (δ-opioid receptor (DOR)): 0.00664 ± 0.00089 µM
Ki (μ-opioid receptor (MOR)): 0.874 ± 0.1 µM

Cc1cc(O)cc(C)c1C[C@H](N)C(=O)N[C@H]1Cc2ccccc2CN(CC(=O)NCc2ccccc2)C1=O [compound 6, H-Dmt-Aba-Gly-NH-Bn]
Ki (δ-opioid receptor (DOR)): 0.011 ± 0.0023 µM
Selectivity Kiδ/Kiμ (μ-opioid receptor (MOR)): 24
Ki (μ-opioid receptor (MOR)): 0.00046 ± 7e-05 µM
IC50 (μ-opioid receptors): 0.051 ± 0.005 µM
IC50 (δ-opioid receptor [2]): 0.83 ± 0.07 µM

Cc1cc(O)cc(C)c1C[C@H](N)C(=O)N1Cc2ccccc2C[C@H]1C(=O)NCCNC(=O)[C@@H]1Cc2ccccc2CN1C(=O)[C@@H](N)Cc1c(C)cc(O)cc1C [compound 9, ethylene-bis(H-Dmt-Tic-NH)] (I: H-[Dmt]-[Tic] / II: H-[Dmt]-[Tic]; linker I:C-II:C via Ethylenediamine)
Kb (δ-opioid receptor [1]): 0.000912 µM
GTPγS (pA2)δ (δ-opioid receptor [1]): 9.04

Cc1cc(O)cc(C)c1C[C@H](N)C(=O)N[C@@H]1Cc2c([nH]c3ccccc23)CN(CC(=O)NCCNC(=O)CN2Cc3[nH]c4ccccc4c3C[C@@H](NC(=O)[C@@H](N)Cc3c(C)cc(O)cc3C)C2=O)C1=O [compound 11, ethylene-bis(H-Dmt-D-Aia-Gly-NH)]
GTPγS (pA2)δ (δ-opioid receptor [1]): unable to diminish the GTPγS binding

Cc1cc(O)cc(C)c1C[C@H](N)C(=O)N1Cc2ccccc2C[C@H]1C(=O)NCCN(CCNC(=O)[C@@H]1Cc2ccccc2CN1C(=O)[C@@H](N)Cc1c(C)cc(O)cc1C)CCNC(=O)[C@@H]1Cc2ccccc2CN1C(=O)[C@@H](N)Cc1c(C)cc(O)cc1C [compound 15, tris-[H-Dmt-Tic-NH-ethylene]-N]
Kb (δ-opioid receptor [1]): 0.00229 µM

Cc1cc(O)cc(C)c1C[C@H](N)C(=O)N[C@@H]1Cc2c([nH]c3ccccc23)CN(CC(=O)NCc2ccccc2)C1=O [compound 7, H-Dmt-D-Aia-Gly-NH-Bn]
Ki (δ-opioid receptor (DOR)): 0.16 ± 0.023 µM
Selectivity Kiδ/Kiμ (μ-opioid receptor (MOR)): 48
Ki (μ-opioid receptor (MOR)): 0.00335 ± 0.00028 µM
IC50 (μ-opioid receptors): 0.0149 ± 0.0016 µM
IC50 (δ-opioid receptor [2]): 1.5 ± 0.139 µM

Cc1cc(O)cc(C)c1CC(N)C(=O)N1Cc2ccccc2CC1C(=O)NCCCCNC(=O)C1Cc2ccccc2CN1C(=O)C(N)Cc1c(C)cc(O)cc1C (stereo not drawn) [butylene-bis[Dmt-Tic-NH]]
pA2 δ (δ-opioid receptor [3]): 10.51
pA2 μ (μ-opioid receptor): 6.99

Cc1cc(O)cc(C)c1CC(N)C(=O)N1Cc2ccccc2CC1C(=O)NCCCCCCNC(=O)C1Cc2ccccc2CN1C(=O)C(N)Cc1c(C)cc(O)cc1C (stereo not drawn) [1,6-bis[H-Dmt-Tic-NH]hexane]
pA2 δ (δ-opioid receptor [3]): 10.62
